# In PubChem BioAssay (NCI):
#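 Step 1: Grow cells in 96-well plates. Step 2: Expose to compound for 48 hours at 5 concentrations. Step 3: Interpolate endpoints linearly; if unreached, use highest concentration. TGI denotes the concentration required for complete inhibition of growth.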 Where a SMILES comes first, the peptide text is derived from it. [ ]: non-standard residue; d: D form. The star is where a group is joined. Iva = CC[C](C)(N)C(=O)O; Boc = CC(C)(C)OC(=O)*; X52 = C1CCC(=NO*)C1
# What was measured:
# Test in all cases: NCI tumour cell line growth inhibition, 48 h
# [1] = tested on: HS 578T breast
# [2] = tested on: SK-OV-3 ovarian
# [3] = tested on: DU-145 prostate
# [4] = tested on: K-562 leukemia
# [5] = tested on: NCI/ADR-RES ovarian
# [6] = tested on: SF-295 CNS
# [7] = tested on: SN12C renal
# [8] = tested on: KM12 colon
# [9] = tested on: OVCAR-8 ovarian
# [10] = tested on: MALME-3M melanoma
# [11] = tested on: T-47D breast
# [12] = tested on: 786-0 renal
# [13] = tested on: COLO 205 colon
# [14] = tested on: NCI-H522 lung
# [15] = tested on: SR leukemia
# [16] = tested on: A498 renal
# [17] = tested on: MDA-MB-435
# [18] = tested on: SF-268 CNS
# [19] = tested on: M14 melanoma
# [20] = tested on: UO-31 renal
# [21] = tested on: RXF 393 renal
# [22] = tested on: RPMI-8226 leukemia
# [23] = tested on: UACC-62 melanoma
# [24] = tested on: NCI-H226 lung
# [25] = tested on: EKVX NSCLC
# [26] = tested on: MCF7 breast
# [27] = tested on: PC-3 prostate
# [28] = tested on: HOP-92 NSCLC
# [29] = tested on: CAKI-1 renal
# [30] = tested on: NCI-H23 lung
# [31] = tested on: OVCAR-3 ovarian
# [32] = tested on: SK-MEL-5 melanoma
# [33] = tested on: MDA-MB-231 breast
# [34] = tested on: TK-10 renal
# [35] = tested on: SF-539 CNS
# [36] = tested on: SNB-19 CNS
# [37] = tested on: OVCAR-4 ovarian
# [38] = tested on: ACHN renal
# [39] = tested on: UACC-257 melanoma
# [40] = tested on: SK-MEL-28 melanoma
# [41] = tested on: BT-549 breast
# [42] = tested on: U251 CNS
# [43] = tested on: HT29 colon
# [44] = tested on: SW-620 colon
# [45] = tested on: OVCAR-5 ovarian
# [46] = tested on: HCT-15 colon
# [47] = tested on: SNB-75 CNS
# [48] = tested on: CCRF-CEM leukemia
# [49] = tested on: HCC-2998 colon
# [50] = tested on: HOP-62 NSCLC
# [51] = tested on: SK-MEL-2 melanoma
# [52] = tested on: HCT-116 colon
# [53] = tested on: MDA-N
# [54] = tested on: LOX IMVI melanoma
# [55] = tested on: MOLT-4 leukemia
# [56] = tested on: A549 NSCLC
# [57] = tested on: NCI-H460 lung
# [58] = tested on: IGROV1 ovarian
# [59] = tested on: HL-60(TB) leukemia
structure (smiles),measurement,setting,value
O=c1[nH]/c(=C/c2ccc(OCc3ccccc3)cn2)c(=O)[nH]/c1=C/c1ccc(F)cc1,TGI,[1],15.7 µM
same,TGI,[2],> 37.8 µM
same,TGI,[3],> 34.8 µM
same,TGI,[4],> 36.4 µM
same,TGI,[5],> 37 µM
same,TGI,[6],> 27.5 µM
same,TGI,[7],> 50.3 µM
same,TGI,[8],> 40.9 µM
same,TGI,[9],> 47 µM
same,TGI,[10],> 51.8 µM
same,TGI,[11],> 55.6 µM
same,TGI,[12],30 µM
same,TGI,[13],6.75 µM
same,TGI,[14],9.06 µM
same,TGI,[15],1.29 µM
same,TGI,[16],> 100 µM
same,TGI,[17],0.687 µM
same,TGI,[18],> 40.7 µM
same,TGI,[19],> 32.1 µM
same,TGI,[20],> 60.1 µM
same,TGI,[21],1.95 µM
same,TGI,[22],10.8 µM
same,TGI,[23],> 50.2 µM
same,TGI,[24],> 44.3 µM
same,TGI,[25],> 93.6 µM
same,TGI,[26],> 100 µM
same,TGI,[27],> 45.4 µM
same,TGI,[28],> 37.7 µM
same,TGI,[29],> 100 µM
same,TGI,[30],> 50.4 µM
same,TGI,[31],1.42 µM
same,TGI,[32],> 100 µM
same,TGI,[33],> 51.3 µM
same,TGI,[34],> 39.7 µM
same,TGI,[35],19.3 µM
same,TGI,[36],> 34.2 µM
same,TGI,[37],> 82.1 µM
same,TGI,[38],> 76.2 µM
same,TGI,[39],58.4 µM
same,TGI,[40],> 100 µM
same,TGI,[41],> 58.5 µM
same,TGI,[42],> 35.7 µM
same,TGI,[43],> 32.4 µM
same,TGI,[44],> 44.6 µM
same,TGI,[45],> 100 µM
same,TGI,[46],> 42.6 µM
same,TGI,[47],4.73 µM
same,TGI,[48],> 44.7 µM
same,TGI,[49],> 40.3 µM
same,TGI,[50],> 35.5 µM
same,TGI,[51],> 52.2 µM
same,TGI,[52],> 100 µM
same,TGI,[53],0.259 µM
same,TGI,[54],> 100 µM
same,TGI,[55],> 34.4 µM
same,TGI,[56],> 50 µM
same,TGI,[57],> 34.2 µM
same,TGI,[58],13.1 µM
CCC(C)(NC(=O)C(C)NC(=O)OC(C)(C)C)C(=O)NC(C)C(=O)NC(C)(CC)C(=O)ON=C1CCCC1 (centres undefined) (Boc-A[Iva]A[Iva]-X52; configuration not given here),TGI,[1],> 100 µM
same,TGI,[2],> 100 µM
same,TGI,[3],> 100 µM
same,TGI,[4],> 100 µM
same,TGI,[5],> 100 µM
same,TGI,[6],> 100 µM
same,TGI,[7],> 100 µM
same,TGI,[8],> 100 µM
same,TGI,[9],> 100 µM
same,TGI,[10],> 100 µM
same,TGI,[11],> 100 µM
same,TGI,[13],> 100 µM
same,TGI,[14],> 100 µM
same,TGI,[15],> 100 µM
same,TGI,[16],> 100 µM
same,TGI,[17],> 100 µM
same,TGI,[19],> 100 µM
same,TGI,[20],> 100 µM
same,TGI,[21],> 100 µM
same,TGI,[22],> 100 µM
same,TGI,[23],> 100 µM
same,TGI,[24],> 100 µM
same,TGI,[26],> 100 µM
same,TGI,[27],> 100 µM
same,TGI,[28],> 100 µM
same,TGI,[29],> 100 µM
same,TGI,[30],> 100 µM
same,TGI,[31],> 100 µM
same,TGI,[32],> 100 µM
same,TGI,[33],> 100 µM
same,TGI,[36],> 100 µM
same,TGI,[40],> 100 µM
same,TGI,[41],> 100 µM
same,TGI,[42],> 100 µM
same,TGI,[45],> 100 µM
same,TGI,[46],> 100 µM
same,TGI,[47],> 100 µM
same,TGI,[48],> 100 µM
same,TGI,[49],> 100 µM
same,TGI,[59],> 100 µM
same,TGI,[50],> 100 µM
same,TGI,[51],> 100 µM
same,TGI,[52],> 100 µM
same,TGI,[53],> 100 µM
same,TGI,[55],> 100 µM
same,TGI,[57],> 100 µM
same,TGI,[58],> 100 µM
N#CC1C(=O)SC2c3ccccc3C(=O)c3ccccc3C12 (centres undefined),TGI,[1],> 10 µM
same,TGI,[2],> 10 µM
same,TGI,[3],> 10 µM
same,TGI,[4],> 10 µM
same,TGI,[5],> 10 µM
same,TGI,[6],> 10 µM
same,TGI,[7],> 10 µM
same,TGI,[8],> 10 µM
same,TGI,[9],> 10 µM
same,TGI,[10],> 10 µM
same,TGI,[11],> 10 µM
same,TGI,[12],> 10 µM
same,TGI,[13],> 10 µM
same,TGI,[15],> 10 µM
same,TGI,[16],> 10 µM
same,TGI,[17],> 10 µM
same,TGI,[18],> 10 µM
same,TGI,[19],> 10 µM
same,TGI,[20],> 10 µM
same,TGI,[21],> 10 µM
same,TGI,[22],> 10 µM
same,TGI,[23],> 10 µM
same,TGI,[24],> 10 µM
same,TGI,[25],> 10 µM
same,TGI,[26],> 10 µM
same,TGI,[27],> 10 µM
same,TGI,[29],> 10 µM
same,TGI,[30],> 10 µM
same,TGI,[31],> 10 µM
same,TGI,[32],> 10 µM
same,TGI,[33],> 10 µM
same,TGI,[34],> 10 µM
same,TGI,[35],> 10 µM
same,TGI,[36],> 10 µM
same,TGI,[37],> 10 µM
same,TGI,[38],> 10 µM
same,TGI,[39],> 10 µM
same,TGI,[40],> 10 µM
same,TGI,[41],> 10 µM
same,TGI,[42],> 10 µM
same,TGI,[43],> 10 µM
same,TGI,[44],> 10 µM
same,TGI,[45],> 10 µM
same,TGI,[46],> 10 µM
same,TGI,[47],> 10 µM
same,TGI,[48],> 10 µM
same,TGI,[49],> 10 µM
same,TGI,[59],> 10 µM
same,TGI,[50],> 10 µM
same,TGI,[51],> 10 µM
same,TGI,[52],> 10 µM
same,TGI,[53],> 10 µM
same,TGI,[54],> 10 µM
same,TGI,[55],> 10 µM
same,TGI,[56],> 10 µM
same,TGI,[57],> 10 µM
same,TGI,[58],> 10 µM
CCCCN1CN2C(=O)C(C(=O)OCC)C(=O)c3sc4nc(SC)nc1c4c32 (centres undefined),TGI,[1],19.9 µM
same,TGI,[2],31.7 µM
same,TGI,[3],35.4 µM
same,TGI,[4],77.9 µM
same,TGI,[5],37.1 µM
same,TGI,[6],30.8 µM
same,TGI,[7],34.1 µM
same,TGI,[8],36 µM
same,TGI,[9],36.8 µM
same,TGI,[10],30.2 µM
same,TGI,[11],42.7 µM
same,TGI,[13],35.5 µM
same,TGI,[14],35.4 µM
same,TGI,[15],67 µM
same,TGI,[16],16.8 µM
same,TGI,[17],34 µM
same,TGI,[18],39.8 µM
same,TGI,[19],40.1 µM
same,TGI,[20],37.4 µM
same,TGI,[21],38.5 µM
same,TGI,[22],42.7 µM
same,TGI,[23],31.5 µM
same,TGI,[24],34 µM
same,TGI,[25],32.2 µM
same,TGI,[26],39.9 µM
same,TGI,[27],39.5 µM
same,TGI,[28],30.5 µM
same,TGI,[29],32.9 µM
same,TGI,[30],33.6 µM
same,TGI,[31],34.6 µM
same,TGI,[32],24.8 µM
same,TGI,[33],32.6 µM
same,TGI,[34],28.4 µM
same,TGI,[35],33.8 µM
same,TGI,[36],34.8 µM
same,TGI,[37],33.4 µM
same,TGI,[38],30.7 µM
same,TGI,[39],35.8 µM
same,TGI,[40],34 µM
same,TGI,[41],30.6 µM
same,TGI,[42],33.7 µM
same,TGI,[43],40.5 µM
same,TGI,[44],35.6 µM
same,TGI,[45],32.6 µM
same,TGI,[46],38 µM
same,TGI,[47],35.7 µM
same,TGI,[48],83.9 µM
same,TGI,[59],> 100 µM
same,TGI,[50],30.5 µM
same,TGI,[51],36.6 µM
same,TGI,[52],30.6 µM
same,TGI,[53],32.3 µM
same,TGI,[54],38.1 µM
same,TGI,[55],66.3 µM
same,TGI,[56],39.9 µM
same,TGI,[57],40.2 µM
same,TGI,[58],33.5 µM
